{"source": "PubChem BioAssay AID248", "about": "(DTP/NCI, 2004)", "test_system": "L1210 leukemia ip in BDF1 mice, survival T/C", "assay": "NCI In Vivo Anticancer Drug Screen. Data for tumor model L1210 Leukemia (intraperitoneal) in B6D2F1 (BDF1) mice", "conditions": "endpoint: mean survival time, higher = longer survival", "method_in_brief": "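Each compound was tested against a transplantable tumor grown in mice. The endpoint was survival, with treated animals benchmarked against vehicle controls as a simple ratio.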", "key": {"[1]": {"conditions": "dose: 100.0 mg/kg/injection, schedule: Q04DX003 (ip), vehicle: saline"}, "[2]": {"conditions": "dose: 200.0 mg/kg/injection, schedule: Q04DX003 (ip), vehicle: saline"}, "[3]": {"conditions": "dose: 400.0 mg/kg/injection, schedule: Q04DX003 (ip), vehicle: saline"}, "[4]": {"conditions": "dose: 100.0 mg/kg/injection, schedule: Q01DX009 (ip), vehicle: Klucel (hydroxypropylcellulose) (HPC)"}, "[5]": {"conditions": "dose: 200.0 mg/kg/injection, schedule: Q01DX009 (ip), vehicle: Klucel (hydroxypropylcellulose) (HPC)"}, "[6]": {"conditions": "dose: 100.0 mg/kg/injection, schedule: Q04DX003 (ip), vehicle: saline with Tween-80"}, "[7]": {"conditions": "dose: 200.0 mg/kg/injection, schedule: Q04DX003 (ip), vehicle: saline with Tween-80"}, "[8]": {"conditions": "dose: 400.0 mg/kg/injection, schedule: Q04DX003 (ip), vehicle: saline with Tween-80"}, "[9]": {"conditions": "dose: 100.0 mg/kg/injection, schedule: Q04DX002 (ip), vehicle: Klucel (hydroxypropylcellulose) (HPC)"}, "[10]": {"conditions": "dose: 200.0 mg/kg/injection, schedule: Q04DX002 (ip), vehicle: Klucel (hydroxypropylcellulose) (HPC)"}, "[11]": {"conditions": "dose: 400.0 mg/kg/injection, schedule: Q04DX002 (ip), vehicle: Klucel (hydroxypropylcellulose) (HPC)"}, "[12]": {"conditions": "dose: 100.0 mg/kg/injection, schedule: Q01DX009 (ip), vehicle: saline"}}, "note": "Values joined by “and” are separate entries in the source; they are usually repeats but may differ in a detail not shown here. Equal values may be shown once. Toxic doses and inconclusive results are not listed.", "data": [{"molecule": "CC([NH-])C[NH-].[Cl][Pt+2][Cl]", "note": "(stereo not given)", "values": [{"measurement": "T/C", "setting": "dose: 0.31 mg/kg/injection, schedule: Q01DX009 (ip), vehicle: saline", "result": "108 % of control"}, {"measurement": "T/C", "setting": "dose: 0.62 mg/kg/injection, schedule: Q01DX009 (ip), vehicle: saline", "result": "116 % of control and 119 % of control"}, {"measurement": "T/C", "setting": "dose: 1.1 mg/kg/injection, schedule: Q01DX009 (ip), vehicle: saline", "result": "111 % of control"}, {"measurement": "T/C", "setting": "dose: 1.25 mg/kg/injection, schedule: Q01DX009 (ip), vehicle: saline", "result": "122 % of control"}, {"measurement": "T/C", "setting": "dose: 1.65 mg/kg/injection, schedule: Q01DX009 (ip), vehicle: saline", "result": "116 % of control"}, {"measurement": "T/C", "setting": "dose: 3.75 mg/kg/injection, schedule: Q01DX009 (ip), vehicle: saline", "result": "173 % of control"}, {"measurement": "T/C", "setting": "dose: 5.0 mg/kg/injection, schedule: Q01DX009 (ip), vehicle: saline", "result": "93 % of control and 108 % of control"}, {"measurement": "T/C", "setting": "dose: 6.25 mg/kg/injection, schedule: Q04DX002 (ip), vehicle: Klucel (hydroxypropylcellulose) (HPC)", "result": "112 % of control"}, {"measurement": "T/C", "setting": "dose: 12.5 mg/kg/injection, schedule: Q04DX002 (ip), vehicle: Klucel (hydroxypropylcellulose) (HPC)", "result": "112 % of control"}, {"measurement": "T/C", "setting": "dose: 25.0 mg/kg/injection, schedule: Q04DX002 (ip), vehicle: Klucel (hydroxypropylcellulose) (HPC)", "result": "104 % of control"}]}, {"molecule": "O=c1[nH]ccn2cncc12", "values": [{"measurement": "T/C", "setting": "[1]", "result": "93 % of control"}, {"measurement": "T/C", "setting": "[2]", "result": "103 % of control"}, {"measurement": "T/C", "setting": "[3]", "result": "106 % of control"}]}, {"molecule": "CN(C)C(=S)Oc1ccc(S(=O)(=O)F)c(Cl)c1Cl", "values": [{"measurement": "T/C", "setting": "dose: 25.0 mg/kg/injection, schedule: Q04DX002 (ip), vehicle: saline with Tween-80", "result": "92 % of control"}, {"measurement": "T/C", "setting": "dose: 50.0 mg/kg/injection, schedule: Q04DX002 (ip), vehicle: saline with Tween-80", "result": "92 % of control"}, {"measurement": "T/C", "setting": "dose: 100.0 mg/kg/injection, schedule: Q04DX002 (ip), vehicle: saline with Tween-80", "result": "86 % of control"}]}, {"molecule": "NC(=O)C(C(N)=O)C1CCCCc2ccccc21", "note": "(stereo not given)", "values": [{"measurement": "T/C", "setting": "dose: 100.0 mg/kg/injection, schedule: Q01DX001 (ip), vehicle: carboxymethylcellulose (CMC)", "result": "90 % of control"}, {"measurement": "T/C", "setting": "dose: 200.0 mg/kg/injection, schedule: Q01DX001 (ip), vehicle: carboxymethylcellulose (CMC)", "result": "106 % of control"}, {"measurement": "T/C", "setting": "dose: 400.0 mg/kg/injection, schedule: Q01DX001 (ip), vehicle: carboxymethylcellulose (CMC)", "result": "88 % of control"}]}, {"molecule": "O=C(Nc1ccc(O)cc1)Nc1cccc(Cl)c1Cl", "values": [{"measurement": "T/C", "setting": "[4]", "result": "97 % of control"}, {"measurement": "T/C", "setting": "[5]", "result": "92 % of control"}, {"measurement": "T/C", "setting": "dose: 400.0 mg/kg/injection, schedule: Q01DX009 (ip), vehicle: Klucel (hydroxypropylcellulose) (HPC)", "result": "103 % of control"}]}, {"molecule": "N#CCCCN1CCOCC1", "values": [{"measurement": "T/C", "setting": "[1]", "result": "96 % of control"}, {"measurement": "T/C", "setting": "[2]", "result": "96 % of control"}, {"measurement": "T/C", "setting": "[3]", "result": "104 % of control"}]}, {"molecule": "O=C(CCl)NCCCCCNC(=O)CCl", "values": [{"measurement": "T/C", "setting": "[4]", "result": "104 % of control"}, {"measurement": "T/C", "setting": "[5]", "result": "105 % of control"}]}, {"molecule": "Nc1nc(-c2ccc(Cl)cc2)c(N=Nc2ccc(Br)cc2)s1", "values": [{"measurement": "T/C", "setting": "[6]", "result": "104 % of control"}, {"measurement": "T/C", "setting": "[7]", "result": "97 % of control"}, {"measurement": "T/C", "setting": "[8]", "result": "101 % of control"}]}, {"molecule": "CCOc1cccc(Cc2c[nH]c(=S)[nH]c2=O)c1", "values": [{"measurement": "T/C", "setting": "dose: 100.0 mg/kg/injection, schedule: Q01DX001 (ip), vehicle: Klucel (hydroxypropylcellulose) (HPC)", "result": "100 % of control"}, {"measurement": "T/C", "setting": "dose: 200.0 mg/kg/injection, schedule: Q01DX001 (ip), vehicle: Klucel (hydroxypropylcellulose) (HPC)", "result": "105 % of control"}, {"measurement": "T/C", "setting": "dose: 400.0 mg/kg/injection, schedule: Q01DX001 (ip), vehicle: Klucel (hydroxypropylcellulose) (HPC)", "result": "94 % of control"}]}, {"molecule": "O=C1OCc2cc3ccccc3nc21", "values": [{"measurement": "T/C", "setting": "dose: 100.0 mg/kg/injection, schedule: Q01DX009 (ip), vehicle: saline with Tween-80", "result": "94 % of control"}, {"measurement": "T/C", "setting": "[6]", "result": "105 % of control"}, {"measurement": "T/C", "setting": "dose: 200.0 mg/kg/injection, schedule: Q01DX009 (ip), vehicle: saline with Tween-80", "result": "97 % of control"}, {"measurement": "T/C", "setting": "[7]", "result": "105 % of control"}, {"measurement": "T/C", "setting": "dose: 400.0 mg/kg/injection, schedule: Q01DX009 (ip), vehicle: saline with Tween-80", "result": "92 % of control"}, {"measurement": "T/C", "setting": "[8]", "result": "96 % of control"}]}, {"molecule": "O=C(NCCCCCCNC(=O)NCCN1CCOCC1)NCCN1CCOCC1", "values": [{"measurement": "T/C", "setting": "[9]", "result": "94 % of control"}, {"measurement": "T/C", "setting": "[10]", "result": "105 % of control"}, {"measurement": "T/C", "setting": "[11]", "result": "97 % of control"}]}, {"molecule": "COC(=O)C(=O)CC(=O)c1ccc(OC)cc1", "values": [{"measurement": "T/C", "setting": "[9]", "result": "103 % of control"}, {"measurement": "T/C", "setting": "[10]", "result": "95 % of control"}, {"measurement": "T/C", "setting": "[11]", "result": "100 % of control"}]}, {"molecule": "Nc1ccc2ncccc2c1", "values": [{"measurement": "T/C", "setting": "dose: 25.0 mg/kg/injection, schedule: Q01DX009 (ip), vehicle: saline", "result": "97 % of control"}, {"measurement": "T/C", "setting": "dose: 50.0 mg/kg/injection, schedule: Q01DX009 (ip), vehicle: saline", "result": "93 % of control"}, {"measurement": "T/C", "setting": "[12]", "result": "105 % of control and 90 % of control"}, {"measurement": "T/C", "setting": "dose: 100.0 mg/kg/injection, schedule: Q04DX002 (ip), vehicle: alcohol", "result": "96 % of control"}, {"measurement": "T/C", "setting": "[1]", "result": "94 % of control"}, {"measurement": "T/C", "setting": "dose: 200.0 mg/kg/injection, schedule: Q01DX009 (ip), vehicle: saline", "result": "90 % of control"}, {"measurement": "T/C", "setting": "dose: 200.0 mg/kg/injection, schedule: Q04DX002 (ip), vehicle: alcohol", "result": "101 % of control"}, {"measurement": "T/C", "setting": "[2]", "result": "96 % of control"}, {"measurement": "T/C", "setting": "dose: 400.0 mg/kg/injection, schedule: Q04DX002 (ip), vehicle: alcohol", "result": "109 % of control"}, {"measurement": "T/C", "setting": "[3]", "result": "107 % of control"}]}, {"molecule": "Nc1nc(-c2ccccc2)c(CCCNc2ccc(C(=O)NC(CCC(=O)O)C(=O)O)cc2)c(=O)[nH]1", "note": "(stereo not given)", "values": [{"measurement": "T/C", "setting": "dose: 50.0 mg/kg/injection, schedule: Q01DX001 (ip), vehicle: saline", "result": "98 % of control"}, {"measurement": "T/C", "setting": "dose: 100.0 mg/kg/injection, schedule: Q01DX001 (ip), vehicle: saline", "result": "104 % of control"}, {"measurement": "T/C", "setting": "[6]", "result": "106 % of control"}, {"measurement": "T/C", "setting": "dose: 200.0 mg/kg/injection, schedule: Q01DX001 (ip), vehicle: saline", "result": "98 % of control"}, {"measurement": "T/C", "setting": "[7]", "result": "100 % of control"}, {"measurement": "T/C", "setting": "dose: 400.0 mg/kg/injection, schedule: Q01DX001 (ip), vehicle: saline", "result": "101 % of control"}, {"measurement": "T/C", "setting": "[8]", "result": "89 % of control"}]}, {"molecule": "NCCCn1cnc2c(N)ncnc21", "values": [{"measurement": "T/C", "setting": "[12]", "result": "94 % of control"}, {"measurement": "T/C", "setting": "[1]", "result": "91 % of control"}, {"measurement": "T/C", "setting": "[2]", "result": "98 % of control"}]}]}
